In patent US5840684A, “Glycopeptide antibiotic derivatives” (Eli Lilly and Company, priority 1995, dated 1998):
Values after ≈ are worked out from the molar mass of the structure shown.

Assays:
[1] = test system: Staphylococcus aureus SA1199B; assay type: cell-based
Procedure: (§1) The MIC's were determined using a standard broth micro-dilution assay.

[2] = test system: Entercoccus faecium 180-1; assay: broth micro-dilution MIC; assay type: cell-based
Procedure: as §1

Entercoccus faecium 276 = assay: broth micro-dilution MIC; assay type: cell-based
Procedure: as §1

[3] = test system: Staphylococcus aureus 446; assay: broth micro-dilution MIC; assay type: cell-based
Procedure: as §1

[4] = test system: Staphylococcus aureus 447; assay: broth micro-dilution MIC; assay type: cell-based
Procedure: as §1

[5] = test system: Staphylococcus aureus 491; assay: broth micro-dilution MIC; assay type: cell-based
Procedure: as §1

[6] = test system: Staphylococcus aureus SA1199A; assay: broth micro-dilution MIC; assay type: cell-based
Procedure: as §1

[7] = test system: Staphylococcus aureus SA1199; assay: broth micro-dilution MIC; assay type: cell-based
Procedure: as §1

[8] = test system: Staphylococcus aureus X400; assay: broth micro-dilution MIC; assay type: cell-based
Procedure: as §1

[9] = test system: Streptococcus pyogenes C203; assay: broth micro-dilution MIC; assay type: cell-based
Procedure: as §1

Entercoccus faecium 2041 = assay: broth micro-dilution MIC; assay type: cell-based; conditions: Entercoccus faecium 2041
Procedure: (§2) The formula I compounds have in vitro and in vivo activity against Gram-positive pathogenic bacteria. The MIC's were determined using a standard broth micro-dilution assay.

[10] = test system: Enterococcus gallinarum 245; assay: broth micro-dilution MIC; assay type: cell-based; conditions: Enterococcus gallinarum 245
Procedure: as §2

[11] = test system: Staphylococcus epidermidis 270; assay: broth micro-dilution MIC; assay type: cell-based
Procedure: as §2

[12] = test system: Staphylococcus haemolyticus 105; assay: broth micro-dilution MIC; assay type: cell-based
Procedure: as §2

[13] = test system: Staphylococcus haemolyticus 415; assay: broth micro-dilution MIC; assay type: cell-based
Procedure: as §2

[14] = test system: Streptococcus pneumoniae P1; assay: broth micro-dilution MIC; assay type: cell-based
Procedure: as §2

Streptococcus pyogenes = assay: mouse protection, experimentally-induced infection; assay type: in vivo; conditions: mice infected with Streptococcus pyogenes, two doses
Streptococcus pneumoniae = assay: mouse protection, experimentally-induced infection; assay type: in vivo; conditions: mice infected with Streptococcus pneumoniae, two doses
[15] = test system: vancomycin-resistant enterococci; assay: broth micro-dilution, mean geometric MIC; assay type: cell-based, Enterococcus faecium and Enterococcus faecalis; conditions: enterococci, 24-hour incubation
[16] = test system: vancomycin-susceptible enterococci; assay: broth micro-dilution, mean geometric MIC; assay type: cell-based, Enterococcus faecium and Enterococcus faecalis; conditions: enterococci, 24-hour incubation
[17] = test system: Staphylococcus aureus S13E; assay type: cell-based
Procedure: as §1

[18] = test system: Staphylococcus aureus 489; assay: broth micro-dilution MIC; assay type: cell-based
Procedure: as §1

[19] = test system: Staphylococcus aureus X778; assay: broth micro-dilution MIC; assay type: cell-based
Procedure: as §1

Entercoccus faecium 180 = assay: broth micro-dilution MIC; assay type: cell-based; conditions: Entercoccus faecium 180
Procedure: as §2

## CN[C@H](CC(C)C)C(=O)N[C@H]1C(=O)N[C@@H](CC(N)=O)C(=O)N[C@H]2C(=O)N[C@H]3C(=O)N[C@H](C(=O)N[C@H](C(=O)O)c4cc(O)cc(O)c4-c4cc3ccc4O)[C@H](O[C@H]3C[C@](C)(N)[C@@H](O)[C@H](C)O3)c3ccc(c(Cl)c3)Oc3cc2cc(c3O[C@@H]2O[C@H](CO)[C@@H](O)[C@H](O)[C@H]2O[C@H]2C[C@](C)(NCc3ccc(-c4ccc(C)cc4)cc3)[C@@H](O)[C@H](C)O2)Oc2ccc(cc2Cl)[C@H]1O [Compound 97]
[1]
  MIC: 1 µg/mL (≈ 0.564 µM)
[2]
  MIC: ≤ 0.06 µg/mL
Entercoccus faecium 276
  MIC: ≤ 0.06 µg/mL
[3]
  MIC: 1 µg/mL (≈ 0.564 µM)
[4]
  MIC: 1 µg/mL (≈ 0.564 µM)
[5]
  MIC: 0.5 µg/mL (≈ 0.282 µM)
[6]
  MIC: ≤ 0.06 µg/mL
[7]
  MIC: 2 µg/mL (≈ 1.13 µM)
[8]
  MIC: 1 µg/mL (≈ 0.564 µM)
[9]
  MIC: ≤ 0.06 µg/mL
Entercoccus faecium 2041
  MIC: ≤ 0.06 µg/mL
[10]
  MIC: 2 µg/mL (≈ 1.13 µM)
[11]
  MIC: 1 µg/mL (≈ 0.564 µM)
[12]
  MIC: 2 µg/mL (≈ 1.13 µM)
[13]
  MIC: 2 µg/mL (≈ 1.13 µM)
[14]
  MIC: ≤ 0.06 µg/mL
Streptococcus pyogenes
  ED50: 0.066 mg/kg/2
Streptococcus pneumoniae
  ED50: 0.038 mg/kg/2
[15]
  mean geometric MIC, Vancomycin Resistant Strains: 0.71 µg/mL
[16]
  mean geometric MIC, Vancomycin Sensitive Strains: 0.054 µg/mL

## CCOc1cc(CNC2(C)CC(OC3C(Oc4c5cc6cc4Oc4ccc(cc4Cl)C(OC4CC(C)(N)C(O)C(C)O4)C4NC(=O)C(NC(=O)C6NC(=O)C(CC(N)=O)NC(=O)C(NC(=O)C(CC(C)C)NC)C(O)c6ccc(c(Cl)c6)O5)c5ccc(O)c(c5)-c5c(O)cc(O)cc5C(C(=O)O)NC4=O)OC(CO)C(O)C3O)OC(C)C2O)ccc1OCC1CCCCC1 (stereo not drawn) [Compound 105]
[17]
  MIC: 0.5 µg/mL (≈ 0.272 µM)
[1]
  MIC: 0.5 µg/mL (≈ 0.272 µM)
[2]
  MIC: ≤ 0.06 µg/mL
[4]
  MIC: 0.5 µg/mL (≈ 0.272 µM)
[18]
  MIC: 0.5 µg/mL (≈ 0.272 µM)
[7]
  MIC: 1 µg/mL (≈ 0.544 µM)
[8]
  MIC: 0.5 µg/mL (≈ 0.272 µM)
[19]
  MIC: 0.5 µg/mL (≈ 0.272 µM)
[9]
  MIC: ≤ 0.06 µg/mL
[10]
  MIC: 1 µg/mL (≈ 0.544 µM)
[12]
  MIC: 1 µg/mL (≈ 0.544 µM)
[13]
  MIC: 1 µg/mL (≈ 0.544 µM)
[14]
  MIC: ≤ 0.06 µg/mL
Streptococcus pyogenes
  ED50: 0.12 mg/kg/2
Streptococcus pneumoniae
  ED50: 0.041 mg/kg/2
[15]
  mean geometric MIC, Vancomycin Resistant Strains: 0.84 µg/mL
[16]
  mean geometric MIC, Vancomycin Sensitive Strains: 0.062 µg/mL

## CNC(CC(C)C)C(=O)NC1C(=O)NC(CC(N)=O)C(=O)NC2C(=O)NC3C(=O)NC(C(=O)NC(C(=O)O)c4cc(O)cc(O)c4-c4cc3ccc4O)C(OC3CC(C)(N)C(O)C(C)O3)c3ccc(c(Cl)c3)Oc3cc2cc(c3OC2OC(CO)C(O)C(O)C2OC2CC(C)(NCc3ccc(OCc4ccc([N+](=O)[O-])cc4)cc3)C(O)C(C)O2)Oc2ccc(cc2Cl)C1O (stereo not drawn) [Compound 131]
[17]
  MIC: 1 µg/mL (≈ 0.545 µM)
[1]
  MIC: 1 µg/mL (≈ 0.545 µM)
[2]
  MIC: ≤ 0.06 µg/mL
[3]
  MIC: 2 µg/mL (≈ 1.09 µM)
[4]
  MIC: 1 µg/mL (≈ 0.545 µM)
[18]
  MIC: 1 µg/mL (≈ 0.545 µM)
[6]
  MIC: ≤ 0.06 µg/mL
[8]
  MIC: 1 µg/mL (≈ 0.545 µM)
[19]
  MIC: 0.5 µg/mL (≈ 0.273 µM)
[9]
  MIC: ≤ 0.06 µg/mL
Entercoccus faecium 180
  MIC: ≤ 0.06 µg/mL
Entercoccus faecium 2041
  MIC: ≤ 0.06 µg/mL
[10]
  MIC: 2 µg/mL (≈ 1.09 µM)
[11]
  MIC: 1 µg/mL (≈ 0.545 µM)
[12]
  MIC: 1 µg/mL (≈ 0.545 µM)
[13]
  MIC: 2 µg/mL (≈ 1.09 µM)
[14]
  MIC: ≤ 0.06 µg/mL
Streptococcus pyogenes
  ED50: < 0.031 mg/kg/2
Streptococcus pneumoniae
  ED50: 0.077 mg/kg/2
[15]
  mean geometric MIC, Vancomycin Resistant Strains: 0.84 µg/mL
[16]
  mean geometric MIC, Vancomycin Sensitive Strains: 0.028 µg/mL

## CNC(CC(C)C)C(=O)NC1C(=O)NC(CC(N)=O)C(=O)NC2C(=O)NC3C(=O)NC(C(=O)NC(C(=O)O)c4cc(O)cc(O)c4-c4cc3ccc4O)C(OC3CC(C)(N)C(O)C(C)O3)c3ccc(c(Cl)c3)Oc3cc2cc(c3OC2OC(CO)C(O)C(O)C2OC2CC(C)(NCc3ccc(-c4ccc(F)cc4)cc3)C(O)C(C)O2)Oc2ccc(cc2Cl)C1O (stereo not drawn) [Compound 211]
[17]
  MIC: 0.5 µg/mL (≈ 0.281 µM)
[1]
  MIC: 1 µg/mL (≈ 0.563 µM)
[2]
  MIC: ≤ 0.06 µg/mL
Entercoccus faecium 276
  MIC: ≤ 0.06 µg/mL
[3]
  MIC: 1 µg/mL (≈ 0.563 µM)
[4]
  MIC: 0.5 µg/mL (≈ 0.281 µM)
[7]
  MIC: 0.5 µg/mL (≈ 0.281 µM)
[8]
  MIC: 0.5 µg/mL (≈ 0.281 µM)
[19]
  MIC: 1 µg/mL (≈ 0.563 µM)
[9]
  MIC: ≤ 0.06 µg/mL
Entercoccus faecium 180
  MIC: ≤ 0.06 µg/mL
Entercoccus faecium 2041
  MIC: ≤ 0.06 µg/mL
[10]
  MIC: ≤ 0.06 µg/mL
[11]
  MIC: 0.5 µg/mL (≈ 0.281 µM)
[12]
  MIC: 0.5 µg/mL (≈ 0.281 µM)
[13]
  MIC: 0.5 µg/mL (≈ 0.281 µM)
[14]
  MIC: ≤ 0.06 µg/mL
Streptococcus pyogenes
  ED50: < 0.031 mg/kg/2
Streptococcus pneumoniae
  ED50: 0.041 mg/kg/2
[15]
  mean geometric MIC, Vancomycin Resistant Strains: 0.35 µg/mL
[16]
  mean geometric MIC, Vancomycin Sensitive Strains: 0.024 µg/mL

## CNC(CC(C)C)C(=O)NC1C(=O)NC(CC(N)=O)C(=O)NC2C(=O)NC3C(=O)NC(C(=O)NC(C(=O)O)c4cc(O)cc(O)c4-c4cc3ccc4O)C(OC3CC(C)(N)C(O)C(C)O3)c3ccc(c(Cl)c3)Oc3cc2cc(c3OC2OC(CO)C(O)C(O)C2OC2CC(C)(NCc3ccc(OCCCc4ccccc4)cc3)C(O)C(C)O2)Oc2ccc(cc2Cl)C1O (stereo not drawn) [Compound 223]
[17]
  MIC: 0.5 µg/mL (≈ 0.275 µM)
[1]
  MIC: 1 µg/mL (≈ 0.55 µM)
[2]
  MIC: ≤ 0.06 µg/mL
[4]
  MIC: 0.5 µg/mL (≈ 0.275 µM)
[18]
  MIC: 1 µg/mL (≈ 0.55 µM)
[6]
  MIC: ≤ 0.06 µg/mL
[7]
  MIC: 2 µg/mL (≈ 1.1 µM)
[8]
  MIC: 1 µg/mL (≈ 0.55 µM)
[19]
  MIC: 1 µg/mL (≈ 0.55 µM)
[9]
  MIC: ≤ 0.06 µg/mL
Entercoccus faecium 180
  MIC: ≤ 0.06 µg/mL
Entercoccus faecium 2041
  MIC: ≤ 0.06 µg/mL
[10]
  MIC: 1 µg/mL (≈ 0.55 µM)
[11]
  MIC: 0.5 µg/mL (≈ 0.275 µM)
[12]
  MIC: 1 µg/mL (≈ 0.55 µM)
[13]
  MIC: 1 µg/mL (≈ 0.55 µM)
[14]
  MIC: ≤ 0.06 µg/mL
Streptococcus pyogenes
  ED50: < 0.031 mg/kg/2
Streptococcus pneumoniae
  ED50: < 0.031 mg/kg/2
[15]
  mean geometric MIC, Vancomycin Resistant Strains: 0.79 µg/mL
[16]
  mean geometric MIC, Vancomycin Sensitive Strains: 0.055 µg/mL

## CN[C@H](CC(C)C)C(=O)N[C@H]1C(=O)N[C@@H](CC(N)=O)C(=O)N[C@H]2C(=O)N[C@H]3C(=O)N[C@H](C(=O)N[C@H](C(=O)O)c4cc(O)cc(O)c4-c4cc3ccc4O)[C@H](O[C@H]3C[C@](C)(N)[C@@H](O)[C@H](C)O3)c3ccc(cc3)Oc3cc2cc(c3O[C@@H]2O[C@H](CO)[C@@H](O)[C@H](O)[C@H]2O[C@H]2C[C@](C)(N)[C@@H](O)[C@H](C)O2)Oc2ccc(cc2Cl)[C@H]1O [Compound A82846A, A82846A, reference compound]
[17]
  MIC: 0.125 µg/mL (≈ 0.0802 µM)
[1]
  MIC: ≤ .06 µg/mL
[2]
  MIC: 0.125 µg/mL (≈ 0.0802 µM)
Entercoccus faecium 276
  MIC: 0.125 µg/mL (≈ 0.0802 µM)
[18]
  MIC: 0.5 µg/mL (≈ 0.321 µM)
[6]
  MIC: ≤ .06 µg/mL
[7]
  MIC: 0.125 µg/mL (≈ 0.0802 µM)
[8]
  MIC: 0.125 µg/mL (≈ 0.0802 µM)
[19]
  MIC: 0.125 µg/mL (≈ 0.0802 µM)
Entercoccus faecium 180
  MIC: 16 µg/mL (≈ 10.3 µM)
Entercoccus faecium 2041
  MIC: 0.125 µg/mL (≈ 0.0802 µM)
[10]
  MIC: 0.125 µg/mL (≈ 0.0802 µM)
[12]
  MIC: 0.5 µg/mL (≈ 0.321 µM)
[13]
  MIC: 1 µg/mL (≈ 0.642 µM)
Streptococcus pyogenes
  ED50: 0.084 mg/kg/2
Streptococcus pneumoniae
  ED50: 0.39 mg/kg/2
[16]
  mean geometric MIC, Vancomycin Sensitive Strains: 1.7 µg/mL
